# Patent publication US8796295B2, “Substituted benzamide analogs as mGluR5 negative allosteric modulators and methods of making and using the same” (priority 2009, dated 2014)
# Biological target: rat mGluR5 (Rattus norvegicus (Rat), UniProt P31424)
# Test: cell-based
# Protocol: The cells were loaded with a Ca2+-sensitive fluorescent dye (e.g., Fluo-4), and the plates were washed and placed in the FDSS instrument. Test compound was applied to cells 3 seconds after baseline readings were taken. Cells were incubated with the test compounds for 140 seconds and then stimulated with an EC20 concentration of an mGluR5 agonist (e.g., glutamate, 3,5-dihydroxyphenylglycine, or quisqualate); 60-80 seconds later an EC80 concentration of agonist was added and readings taken for an additional 40 seconds. Data were collected at 1 Hz. […] Concentration response curves were generated using a four parameter logistical equation.
# The above described assay was operated in two modes. In the first mode (utilizing a triple add protocol), a range of concentrations of the present compounds were added to cells, followed by two single fixed concentrations of agonist (EC20 followed by EC80). If a compound acted as a potentiator, an EC50 value for potentiation of the EC20 response and a maximum extent of potentiation by the compound at this concentration of agonist was determined by non-linear curve fitting. If a compound acted as an antagonist, an IC50 value for antagonism of the EC80 response and a maximum extent of antagonism by the compound at this concentration of agonist was determined by non-linear curve fitting. In the second mode (utilizing a double add protocol), several fixed concentrations of the present compounds were added to various wells on a plate, followed by a range of concentrations of agonist for each concentration of present compound; the EC50 values for the agonist at each concentration of compound were determined by nonlinear curve fitting. A decrease in the EC50 value of the agonist with increasing concentrations of the present compounds (a leftward shift of the agonist concentration-response curve) is an indication of the degree of mGluR5 positive allosteric modulation at a given concentration of the present compound. An increase in the EC50 value of the agonist with increasing concentrations of the present compounds (a rightward shift of the agonist concentration response curve) is an indication of the degree of mGluR5 antagonism at a given concentration of the present compound. The second mode also indicates whether the present compounds also affect the maximum response to mGluR5 to agonists.
# The mGluR5 activity was determined using the metabotropic glutamate receptor activity assays in human embryonic kidney cells as described herein, wherein the human embryonic kidney cells were transfected with rat mGluR5. The mGluR5 activity data for some compounds are shown as the average of at least three experiments with the standard error in these cases. If no error is indicated for the mGluR5 activity, the values given represent the results from a single experiment or the average of two experiments.
# Chain of rat mGluR5 (P31424 21-1203): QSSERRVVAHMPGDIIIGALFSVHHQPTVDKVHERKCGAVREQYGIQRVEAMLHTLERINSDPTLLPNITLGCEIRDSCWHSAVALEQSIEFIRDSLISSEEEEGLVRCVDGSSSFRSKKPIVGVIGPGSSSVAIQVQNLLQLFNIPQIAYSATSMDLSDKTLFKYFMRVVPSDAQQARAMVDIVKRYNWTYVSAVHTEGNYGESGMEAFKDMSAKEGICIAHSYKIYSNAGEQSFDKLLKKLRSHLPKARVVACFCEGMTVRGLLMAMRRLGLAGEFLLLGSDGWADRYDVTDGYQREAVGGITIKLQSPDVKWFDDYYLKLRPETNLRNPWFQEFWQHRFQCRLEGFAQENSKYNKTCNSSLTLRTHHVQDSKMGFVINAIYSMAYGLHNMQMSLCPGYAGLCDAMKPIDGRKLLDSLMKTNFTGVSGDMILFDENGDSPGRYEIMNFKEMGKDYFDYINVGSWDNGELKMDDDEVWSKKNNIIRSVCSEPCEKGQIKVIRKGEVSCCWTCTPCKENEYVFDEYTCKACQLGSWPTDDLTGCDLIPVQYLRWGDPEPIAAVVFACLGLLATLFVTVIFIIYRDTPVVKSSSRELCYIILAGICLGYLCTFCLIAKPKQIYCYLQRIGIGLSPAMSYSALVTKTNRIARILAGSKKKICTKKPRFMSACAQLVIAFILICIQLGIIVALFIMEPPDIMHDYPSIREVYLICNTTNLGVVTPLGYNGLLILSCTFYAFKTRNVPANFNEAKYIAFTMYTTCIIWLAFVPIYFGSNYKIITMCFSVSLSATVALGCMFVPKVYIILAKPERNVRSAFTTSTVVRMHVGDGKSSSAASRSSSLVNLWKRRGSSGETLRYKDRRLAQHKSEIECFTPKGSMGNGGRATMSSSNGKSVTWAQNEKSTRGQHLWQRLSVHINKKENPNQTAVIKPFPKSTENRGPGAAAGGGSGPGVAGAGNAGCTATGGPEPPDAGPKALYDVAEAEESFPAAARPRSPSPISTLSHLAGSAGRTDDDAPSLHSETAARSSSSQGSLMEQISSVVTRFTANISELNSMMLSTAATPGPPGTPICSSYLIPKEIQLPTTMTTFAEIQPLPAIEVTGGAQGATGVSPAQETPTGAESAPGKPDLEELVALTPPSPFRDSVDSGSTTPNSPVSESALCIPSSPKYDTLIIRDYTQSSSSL
row,Structure (SMILES),IC50
1,O=C(Nc1ccc(F)cn1)c1cccc(Oc2cccnc2)c1,7450 nM
2,Cc1csc(NC(=O)c2cccc(Oc3cccnc3)c2)n1,296 nM
3,Cc1nsc(NC(=O)c2cccc(Oc3cccnc3)c2)n1,> 30000 nM
4,O=C(Nc1ccncn1)c1cccc(Oc2cccnc2)c1,> 10000 nM
5,N#Cc1csc(NC(=O)c2cccc(Oc3cccnc3)c2)n1,3590 nM
6,O=C(Nc1nc(C(F)(F)F)cs1)c1cccc(Oc2cccnc2)c1,> 30000 nM
7,O=C(Nc1nccs1)c1cccc(Oc2cncnc2)c1,4550 nM
8,Cc1csc(NC(=O)c2cccc(Oc3cncnc3)c2)n1,65 nM
9,Cc1csc(NC(=O)c2cc(Cl)cc(Oc3cccnc3)c2)n1,6.5 nM
10,O=C(Nc1nccs1)c1cc(F)cc(Oc2cncnc2)c1,5160 nM
11,Cc1nc(NC(=O)c2cc(F)cc(Oc3cncnc3)c2)sc1F,52 nM
12,O=C(Nc1ncc(F)cc1F)c1cc(Cl)cc(Oc2cncnc2)c1,> 30000 nM
13,O=C(Nc1ccc(Cl)cn1)c1cc(Cl)cc(Oc2cncnc2)c1,87 nM
14,Cc1cc(NC(=O)c2cc(Cl)cc(Oc3cncnc3)c2)ncc1F,2780 nM
15,O=C(Nc1ncccc1F)c1cc(Cl)cc(Oc2cncnc2)c1,> 10000 nM
16,O=C(Nc1nc(C2CC2)cs1)c1cc(Cl)cc(Oc2cncnc2)c1,198 nM
17,O=C(Nc1nc(C(F)F)cs1)c1cc(Cl)cc(Oc2cncnc2)c1,389 nM
18,CCc1ccnc(NC(=O)c2cc(Cl)cc(Oc3cncnc3)c2)c1,4160 nM
19,Cc1nc(NC(=O)c2cc(Cl)cc(Oc3cncnc3)c2)sc1Br,3700 nM
20,O=C(Nc1ccc(F)c(CF)n1)c1cc(F)cc(Oc2cncnc2)c1,4540 nM
21,COc1cccc(NC(=O)c2cc(F)cc(Oc3cncnc3)c2)n1,1060 nM

row,Structure (SMILES),IC50
1,O=C(Nc1ccc(F)c(C(F)F)n1)c1cc(Cl)cc(Oc2cncnc2)c1,779 nM
2,Cc1nc(NC(=O)c2cc(F)cc(Oc3cncnc3)c2)ccc1F,360 nM
3,Cc1nc(NC(=O)c2cc(Cl)cc(Oc3cncnc3)c2)ccc1F,54 nM
4,Cc1nc(NC(=O)c2cc(F)cc(Oc3cncnc3)c2)sc1C(C)(C)C,> 10000 nM
5,O=C(Nc1nc(C2CC2)cs1)c1cc(F)cc(Oc2cncnc2)c1,345 nM
6,Cc1cncc(NC(=O)c2cc(Cl)cc(Oc3cncnc3)c2)c1,> 10000 nM
7,Cc1cncc(NC(=O)c2cc(F)cc(Oc3cncnc3)c2)c1,> 10000 nM
8,CN(c1cccnc1)c1cccc(C(=O)Nc2nccs2)c1,3560 nM
9,CN(c1cccnc1)c1cc(F)cc(C(=O)Nc2nc(C#N)cs2)c1,2190 nM
10,CN(c1cccnc1)c1cc(F)cc(C(=O)Nc2nccs2)c1,1250 nM
11,Cc1csc(NC(=O)c2cc(F)cc(N(C)c3cccnc3)c2)n1,176 nM
12,CN(c1cccnc1)c1cc(Cl)cc(C(=O)Nc2nccs2)c1,648 nM
13,Cc1csc(NC(=O)c2cc(Cl)cc(N(C)c3cccnc3)c2)n1,49 nM
14,CN(c1cncnc1)c1cc(F)cc(C(=O)Nc2cc(Cl)ccn2)c1,106 nM
15,CN(c1cncnc1)c1cc(Cl)cc(C(=O)Nc2cc(Cl)ccn2)c1,262 nM
16,CN(c1cncnc1)c1cc(F)cc(C(=O)Nc2ccc(Cl)cn2)c1,> 30000 nM
17,CN(c1cncnc1)c1cc(Cl)cc(C(=O)Nc2ccc(Cl)cn2)c1,929 nM
18,Cc1cncc(NC(=O)c2cc(F)cc(N(C)c3cncnc3)c2)c1,> 10000 nM
19,Cc1cncc(NC(=O)c2cc(Cl)cc(N(C)c3cncnc3)c2)c1,> 10000 nM
20,Cc1cc(Oc2cncnc2)cc(C(=O)Nc2ccc(F)cn2)c1,22 nM
